From a melting point compilation (Tetko et al.; mined from patent text by program, amines drawn as free bases though some values may be those of a salt)

Row | SMILES | melting point [°C]
1 | CNC(=O)c1ccc(F)c2c1CC(N(CCCCc1c[nH]c3ccc(F)cc13)CC1CC1)CO2 (configuration not stated) | 112
2 | CC(C)(C)OC(=O)N1CCn2c(c(C(N)=O)c(C#N)c2C2CCN(S(C)(=O)=O)CC2)C1 | 220
3 | O=C(Nc1c([N+](=O)[O-])cnn1-c1c(Cl)cc(C(F)(F)F)cc1Cl)C1CCCO1 (configuration not stated) | 169 to 172
4 | CC(C=O)=CC=CC(C)=CCO | 42 to 45
5 | CCOC(=O)c1nc2sc(C(=O)OCC)c(C)c2c(=O)[nH]1 | 237 to 238
6 | C=C(CCCCCCCCCCCCCCCC)CC(CO)CO | 64 to 65
7 | CS(=O)(=O)c1c(C#N)nn(-c2c(Cl)cc(C(F)(F)F)cc2Br)c1N | 235 to 238
8 | CC(=O)N1CCC(O)(C(=O)c2cc(F)ccc2F)CC1 | 118 to 120
9 | Cc1ccccc1OC(=O)N1CCCC1=O | 85 to 87
10 | CC(C)(C(=O)Nc1ccc(Cl)cc1)/C(F)=C\F | 100
11 | CN(C)Cc1cc(-c2ccc3c(c2)CCO3)nn(CC2CC2)c1=O | 109 to 110
12 | Cc1cc(-c2c(F)cc3c(=O)c(C(=O)O)cn4c3c2S(=O)CC4C)cc(C)n1 (configuration not stated) | 294 to 295
13 | CCCC12COC(c3ccc(Cl)cc3)(CC1=O)OC2 | 96
14 | Nc1c([N+](=O)[O-])cc(F)c(Cl)c1Br | 146 to 147
15 | CC(C)(C)OC(=O)N1CCC(N2C(=O)OCc3ccccc32)CC1 | 143 to 145
16 | CN(C)C(=O)c1ccccc1N | 53 to 54
17 | Clc1cccc2c(CN3CC=C(c4ccc5[nH]ccc5c4)CC3)n[nH]c12 | 164 to 167
18 | CCc1nc2ncnc(-c3c(C)cc(C)cc3C)c2[nH]1 | 215 to 217
19 | C[C@@H]1CN(c2c(F)c(N)c3c(=O)c(C(=O)O)cn(C4CC4)c3c2F)C[C@H](C)N1 | 258 to 260
20 | CC1(c2ccc3cc(Br)ccc3c2)OCCO1 | 80 to 82
21 | COc1ccc2c(c1O)CCN(C=O)[C@@H]2c1cc(OC)c(OC)c(OC)c1 | 190 to 192
22 | CC(C)(C)OC(=O)[C@H]1N=CSC[C@]1(O)C(F)(F)F | 126 to 128

Row | SMILES | melting point [°C]
23 | CCC(=Cc1cccc([N+](=O)[O-])c1)[N+](=O)[O-] | 68 to 72
24 | OCC#Cc1ccc(Br)cn1 | 121 to 122
25 | NC(=O)c1sc2ccc(C(F)(F)F)cc2c1O | 196 to 197
26 | CC(C)(C)OC(=O)NC12CCC1CN(c1c(F)cc3c(=O)c(C(=O)O)cn(C4CC4)c3c1Cl)C2 (configuration not stated) | 200 to 202
27 | Cn1cc(Br)cc(Nc2ccc(N3CCN(C(=O)OC(C)(C)C)CC3=O)cn2)c1=O | 130 to 132
28 | CCCc1cc(NC(=O)C(=O)OCC)sc1C(=O)OCC | 93 to 94
29 | CCSc1cnc(Cl)cc1C#N | 112 to 114
30 | CCOC(=O)CCCC(=O)c1ccc(OCCCCCBr)c(CCC(=O)OCC)c1 | 48 to 49
31 | C#CCNCC1=Cc2cc(S(N)(=O)=O)sc2S(=O)(=O)N1C(C)C | 133 to 135
32 | O=C1C=C[C@H]2N1CCN1C(=O)C[C@H]3CCCC[C@@]321 (relative stereo) | 159 to 162
33 | CCc1c2c(cc3c(=O)cc(C(=O)O)oc13)CCCC2 | 269 to 271
34 | CCOC(=O)NCCN1CCC(NC(=O)c2cc(Cl)c(N)c3c2OCCC3)CC1 | 160
35 | CC[Si](CC)(CC)c1ccccc1S(N)(=O)=O | 85.6
36 | CC(C)(C)C(=O)c1cnn2cccnc12 | 130 to 131
37 | Nc1cc(F)c(N2CCOCC2)cc1Cl | 89.5
38 | CCCCCCCOc1ccc(C(=O)Cl)cc1OCCCCCCC | 57 to 58
39 | CC(C)CN1CCC(CNC(=O)c2cc(Cl)c(N)[nH]c2=O)CC1 | 128 to 133
40 | Cc1ccc(OC2CCN(CCc3c[nH]c4ccccc34)CC2)cc1 | 115 to 117
41 | CCOC(=O)Cn1c(=O)c(=O)[nH]c2cc(C(F)(F)F)c(N)cc21 | > 250
42 | CCS(=O)(=O)Nc1ccc2c(c1)S(=O)(=O)C=C(c1c(O)c3cc(F)ccc3n(CCC3CC3)c1=O)N2 | 140 to 142
43 | O=C1C(=Cc2ccc(Cl)cc2)CCCC1=Cc1ccc(Cl)cc1 | 142 to 144
44 | CC12CC(F)C3c4ccc(O)cc4CC(CCCCCBr)C3C1CCC2=O (configuration not stated) | 178

Now from value to compound:

Row | melting point [°C] | SMILES
45 | 316 to 318 | CNc1cc(NS(=O)(=O)c2ccc(C(C)(C)C)cc2)nc(NC)n1
46 | 183 to 185 | COc1ccc(C(=O)Nc2ccccc2)cc1NC(=S)Nc1cccc(C#N)c1
47 | 97 to 100 | CC=CCOc1ccc(C(=O)C=Cc2cccc(OC)c2)c(O)c1
48 | 172 to 174 | CS(=O)c1cc(-c2nc(=O)c3ccccc3s2)ccn1 (configuration not stated)
49 | 99 to 102 | COc1cc(OC)nc(C(C(=O)NS(C)(=O)=O)C(C)C)n1 (configuration not stated)
50 | 129 to 131 | COc1ccc(C=Nc2ccc(S(=O)(=O)NC(C)(C)C)cc2)cc1F
51 | 235 to 238 | O=c1c(Cl)c(OCc2ccc(F)cc2F)ccn1Cc1cccc2cnccc12
52 | 153 to 154 | Cc1sc2ncc(C(O)CCc3ccccc3)n2c1C (configuration not stated)
53 | 83 | COC(=O)N1CCN(C(=O)N2CCC(c3cccnc3)C2)c2ccccc21 (configuration not stated)
54 | 138 to 139 | Cc1ccc(CC(=O)O)c(OCc2ccc(OCc3nc(-c4ccccc4)oc3C)cc2)n1
55 | 91 to 92 | COC(=O)/C(=C\C=C\c1sc2ccccc2c1C)OC
56 | 147 to 148 | Oc1ccccc1-c1cc(-c2ccc(F)c(F)c2)cc(-c2ccco2)n1
57 | 235 | COc1cc(OC)cc(C(=O)Nc2ccc3ccc(Cl)nc3n2)c1
58 | 156 to 157 | CC(=O)OCC1OC(n2ccc3c(C)cccc32)C(OC(C)=O)C(OC(C)=O)C1OC(C)=O (configuration not stated)
59 | 76 to 77.5 | CCCCCCC1(C(=O)NCCC)c2ccccc2Oc2ccccc21
60 | 255 to 256 | O=C(O)c1cccc(-c2nc(-c3ccc(F)cc3F)cs2)c1
61 | 179 to 182 | COC(=O)N[C@@H](Cc1ccc(OCc2ccccc2)cc1)C(=O)Nc1c(C(C)C)cccc1C(C)C
62 | 204 to 205 | O=C1Nc2ccc(Cl)cc2C1(O)Cc1ccccc1 (configuration not stated)
63 | 95 to 99 | O=S(=O)(Oc1ccc2sc(-c3ccc(OCCN4CCCC4)cc3)cc2c1)C(F)(F)F
64 | 114 to 115 | CCOc1ccc(NC=C(C(=O)Nc2ccccc2)c2cc(C)no2)cc1

Row | melting point [°C] | SMILES
65 | 189 to 190 | Cc1cccc(N(c2ccccc2)c2ccc(-c3ccc(-c4ccc(N(c5ccccc5)c5cccc(C)c5)cc4)cc3)cc2)c1
66 | 66 to 68 | CCCCCc1c(C(C)C)nc(C(C)C)c(C(O)CCCC)c1-c1ccc(F)cc1 (configuration not stated)
67 | 91 to 92 | Cc1cc(COc2nn(Cc3ccccc3)cc2CO)ccc1OCc1nc(-c2ccco2)oc1C
68 | 196 to 197 | CCOC(=O)c1c(CSc2ccccc2)n(C)c2cc(Br)c(O)cc12
69 | 105 | COc1cccc2cc(C)c(-c3ccccc3)nc12
70 | 167 to 169 | O=Cc1ccc(N2C[C@H](CN3C(=O)c4ccccc4C3=O)OC2=O)cc1F
71 | 160 to 162 | CC(NC(=O)C(Cc1ccc(OCc2ccccc2)cc1)NC(=O)OC(C)(C)C)C(=O)O (configuration not stated)
72 | 125 | CCC(=O)C1=C(O)CC(c2ccc3ccccc3c2)CC1=O (configuration not stated)
73 | 89 to 91 | CCCCc1nc(Cl)c(CO)n1Cc1ccc(NC(=O)[C@H](CC#N)NC(=O)OCc2ccccc2)cc1
74 | 248 to 250 | COc1cc(C(=O)O)ccc1Cc1cccc2ccc(NC(=O)CC3CCCC3)cc12
75 | 85 to 89 | CN(C)c1ccc(NC(=O)C(CS)Cc2ccccc2)cc1C(=O)O (configuration not stated)
76 | 206 to 208 | NS(=O)(=O)c1ccc(-c2cnn(C3CC=CCC3)c(=O)c2-c2ccc(F)cc2)cc1 (configuration not stated)
77 | 216 to 218 | CC(C(=O)O)c1ccc2cc(OCc3ccc4ccccc4c3)ccc2c1 (configuration not stated)
78 | 265 to 267 | O=C1Nc2ccc(O)cc2Sc2ccccc21
79 | 220 | COc1ccc(-c2nc3cnccc3[nH]2)c(OC(C)C)c1
80 | 53 to 55 | COC(=O)/C=C(\CCCCc1ccccc1)Sc1ccc(OC)c(OC)c1
81 | 162 to 165 | O=Cc1csc(NCc2ccccc2)n1
82 | 221 to 223 | OCc1cc2cccc(Nc3cc(-c4ccc(C(F)(F)F)cc4)ncn3)c2[nH]1
83 | 168 to 169 | Cc1ccc(Oc2ccccc2-n2cc(C(=O)O)nn2)c(O)c1
84 | 253 to 254 | CN1CCN(c2c(CO)cnc3c(NC(=O)c4c(Cl)cccc4Cl)cccc23)C1=S

Row | melting point [°C] | SMILES
85 | 142 to 143 | NC(=O)[C@@H]1CCCN1C(=O)CNC(=O)OCc1ccccc1
86 | 126 to 128 | CC(C)COC(=O)Nc1ccc(C2CCSCC2)cc1
87 | 70 to 72 | c1ccc(C2NCCOC2c2ccccc2)cc1 (configuration not stated)
88 | 297 to 299 | Cc1[nH]c2ccc(C3=NNC(=O)CC3)cc2c1-c1ccccc1
89 | 237 to 240 | COc1cc(O)ccc1-c1nc(C)c(-c2cccnc2)[nH]1
90 | 202 to 204 | CCC(=O)Nc1cnn2cnc3ccccc3c12
91 | 139 to 140 | COC(=O)CCC(=O)c1ccc2c(c1)CC(CNC(C)=O)C2 (configuration not stated)
92 | 162 to 165 | CC(C)OC(=O)c1ccc(Nc2cccc(Br)c2)c([N+](=O)[O-])c1
93 | 101 | CC1(C)C(C#CC(=O)OCC(Cl)(Cl)Cl)C1C(=O)OC(C#N)c1cccc(Oc2ccccc2)c1 (configuration not stated)
94 | 116 to 117 | CCC(=O)Oc1cc(OC)cc(OC)c1C(=O)C=Cc1ccccc1
95 | 228 to 230 | CS(=O)(=O)c1ccc(-c2nc(C(F)(F)F)[nH]c2-c2ccc3ccccc3c2)cc1
96 | 187 to 189 | Cc1nc(N2CCN(Cc3ccc(F)cc3)C2=O)sc1C(=O)NCc1ncco1
97 | 136 to 138 | O=C(O)c1ccccc1Oc1ccc(Br)cc1[N+](=O)[O-]
98 | 208 | COc1ccc(-c2cc(-c3ccccc3)nc(C)c2C(=O)O)cc1OC
99 | 45 to 50 | CCCCCCCCCCCC(=O)OC[C@H]1OCC(=NOCc2ccccc2)[C@@H](O)[C@@H]1O
100 | 159 to 164 | CCOc1ccc(-c2ccc3c(c2)C=C(C(=O)OC)CCN3)cc1OCC
101 | 155 | COC(=O)C(Cc1ccc(OCCc2nc(-c3ccccc3)oc2C)cc1)C(N)=O (configuration not stated)
102 | 108 to 109 | COc1ccccc1CCc1c(CO)ccc(OC)c1OC
